Experimental data: patent publication US20240140931A1, “TRICYCLIC COMPOUNDS AND USES THEREOF” (HUTCHMED LIMITED, priority 2021, published 2024)

What was measured:
[1] = biological target: Human full-length SHP2 recombinant protein (Homo sapiens (Human), UniProt Q06124); assay: Assay of full-length SHP2 phosphatase activity; type: biochemical; settings: DiFMUP substrate, with activating peptide
Method: Example 2 Assay of Full-Length SHP2 Phosphatase Activity
1. Reagents and Materials • Human full-length SHP2 recombinant protein: BPS Bioscience, Cat #79018; • SHP2 substrate DiFMUP (1 mM): BPS Bioscience, Cat #79769; • SHP2 activating peptide (100 μM): BPS Bioscience, Cat #79319-2; • DTT: Merck, Cat #DTT-RO; • 384-well plate: Corning, Cat #3575; • 96-well plate: Thermo Fisher Scientific, Cat #249952; • Instrument: EnVision 2104, PerkinElmer.
2. Preparation of Reaction Solutions
The test compound was dissolved in DMSO and diluted with DMSO to 100.0 μM, and the compound was further 3-fold diluted with DMSO to: 100.00, 33.33, 11.11, 3.70, 1.23, 0.41, 0.14 and 0.05 μM.
3. Experimental Steps • To the corresponding wells of the 384-well plate was added 2.5 μL of 4× test compound or 2.5 μL of 4% DMSO solution, and centrifugation was carried out at 1000 rpm for 30 seconds. • To the test compound well and positive control well was added 2.5 μL of 4× mixed solution of SHP2 enzyme/activating peptide while to the negative control well was added 2.5 μL of 1× enzymatic reaction buffer; centrifugation was carried out at 1000 rpm for 30 seconds and incubation was carried out at room temperature for 30 minutes. • To each well was added 5 μL of 2×DiFMUP substrate to initiate the enzymatic reaction, then the plate was transiently oscillated and centrifuged at 1000 rpm for 30 seconds, and the 384-well plate was sealed with a sealing membrane and incubated at 25° C. on a low-speed shaker (100 rpm) in the dark for 60 minutes. • The fluorescence value (relative fluorescence units, RFU) of each well was detected on EnVision2104 (excitation: 355 nm, emission: 460 nm).
wherein • the RFU of compound well refers to the fluorescence reading at 460 nm of the well containing the test compounds; • the RFU of negative control well refers to the fluorescence reading at 460 nm of the background well containing 1% DMSO and the enzymatic reaction buffer; • the RFU of positive control well refers to the fluorescence reading at 460 nm of the well containing 1% DMSO and the mixed solution of SHP2 enzyme/activating peptide.
(§1) IC50 values were calculated following formula 205: y=A+((B−A)/(1+((C/X)^D))), by using the XL-Fit 5.0 software.

[2] = tested on: pERK1/2 (Thr202/Tyr204) in Miapaca2 cells; assay: Assay of intracellular pERK1/2 (Thr202/Tyr204) phosphorylation; type: cell-based
Method: Example 3 Assay of Intracellular pERK1/2 (Thr202/Tyr204) Phosphorylation
1. Reagents and Materials • pERK1/2 (Thr202/Tyr204) HTRF kit: Cisbio, Cat #64ERKPEH; • Cell line: Miapaca2, ATCC, CRL-1420; • OptiPlate™-384-well plate: PerkinElmer, Cat #6007299; • 96-well plate: Corning, Cat #353072; • Instrument: EnVision2104, PerkinElmer.
2. Preparation of Reaction Solutions • The test compound was dissolved in DMSO and diluted with DMSO to 600.0 μM, and the compound was further 3-fold diluted with DMSO to: 600.0, 200.0, 66.7, 22.2, 7.4, 2.5, 0.82 and 0.27 μM. Then 10 μL of the compound at different dilution concentrations was added to 190 μL of a DMEM medium to prepare a 10× test compound, wherein DMSO was at the concentration of 5% (DMSO was at the final concentration of 0.5%). • 1× cell lysis buffer: 4× cell lysis stock solution (provided by the kit) was diluted 4-fold with deionized water, and then 1% 100× blocking stock solution (provided by the kit) was added thereto. • pERK1/2 detection solution (prepared just before use): the pERK1/2 d2 antibody (provided by the kit) and pERK1/2 Cryptate antibody (provided by the kit) were diluted with the detection solution (provided by the kit) at a ratio of 1:1:38.
3. Experimental Steps • Miapaca2 cells were inoculated into a 96-well plate at a density of 10000 cells/well at 90 μL/well and cultured in a cell incubator at 5% CO2 and 37° C. overnight. • 10 μL of 10× test compound was added to the 90 μL cell culture 96-well plate; to the cell positive control well was added 10 μL of 5% DMSO culture solution; and the plate was cultured in a cell incubator at 5% CO2 and 37° C. for 2 hours. • The medium in the 96-well plate was removed; 50 μL of 1× cell lysis buffer was added to each well; the plate was placed in a microplate shaker; and lysis under shaking was carried out at 900 rpm at room temperature for 1 hour. • 16 μL of the lysis buffer in the 96-well plate was taken and transferred to a 384-well plate, and centrifugation was carried out at 1000 rpm for 30 seconds; then 4 μL of pERK1/2 detection solution was added to each well and centrifugation was carried out at 1000 rpm for 30 seconds; and the 384-well plate was sealed with a sealing membrane and incubated at 25° C. on a low-speed shaker (100 rpm) in the dark for 2 hours. • The fluorescence value (relative fluorescence units, RFU) of each well was detected on EnVision2104 (emission 1: 665 nm, emission 2: 615 nm).
wherein • the fluorescence ratio of compound well refers to the fluorescence ratio of the well containing the test compounds; • the fluorescence ratio of negative control well refers to the fluorescence ratio of the background containing the cell lysis buffer and no Miapaca2 cells; • the fluorescence ratio of positive control well refers to the fluorescence ratio of the well containing 0.5% DMSO and Miapaca2 cells.
as §1

[3] = Homo sapiens, MIA PaCa-2, 2 h, pERK1/2 (Thr202/Tyr204) HTRF
[4] = Homo sapiens, MIA PaCa-2, pERK1/2 (Thr202/Tyr204) HTRF, 2 hours
[5] = pERK1/2 (Thr202/Tyr204) HTRF, 2 hours

Chain of Human full-length SHP2 recombinant protein (Q06124 whole entry): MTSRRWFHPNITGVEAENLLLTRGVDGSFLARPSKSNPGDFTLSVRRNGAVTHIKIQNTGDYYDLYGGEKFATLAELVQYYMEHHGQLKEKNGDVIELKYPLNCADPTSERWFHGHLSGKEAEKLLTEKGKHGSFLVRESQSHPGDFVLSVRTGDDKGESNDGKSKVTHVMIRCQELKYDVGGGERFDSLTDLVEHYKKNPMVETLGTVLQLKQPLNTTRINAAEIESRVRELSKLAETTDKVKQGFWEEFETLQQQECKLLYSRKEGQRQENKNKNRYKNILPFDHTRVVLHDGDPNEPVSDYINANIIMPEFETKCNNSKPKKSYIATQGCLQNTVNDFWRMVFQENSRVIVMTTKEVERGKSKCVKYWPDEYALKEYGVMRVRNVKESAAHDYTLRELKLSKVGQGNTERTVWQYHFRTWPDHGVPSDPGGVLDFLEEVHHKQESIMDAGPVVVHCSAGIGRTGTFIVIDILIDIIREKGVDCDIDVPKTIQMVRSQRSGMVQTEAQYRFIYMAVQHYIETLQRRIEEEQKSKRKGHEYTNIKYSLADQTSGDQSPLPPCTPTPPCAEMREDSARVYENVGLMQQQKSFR

What does the source list for C#Cc1ccc2c(c1)OC1(CCN(c3cc(=O)n(-c4cccc(Cl)c4Cl)c(C)n3)CC1)[C@@H]2N (atropisomer, axis not shown) [Compound 11]?
IC50 [1]: 97 nM; IC50 [2, 3]: 1150 nM

For C#Cc1ccc2c(c1)[C@@H](N)C1(CCN(c3cc(=O)n(-c4cccc(Cl)c4Cl)c(C)n3)CC1)C2 (atropisomer, axis not shown) [Compound 12, (S)-6-(1-amino-6-ethynyl-1,3-dihydrospiro[indene-2,4′-piperidin]-1′-yl)-3-(2,3-dichlorophenyl)-2-methylpyrimidin-4(3H)-one], which IC50 [1] is on record?
Its IC50 is 1 nM.

And the IC50 [2, 4]?
The IC50 was 7 nM.

What does the source list for C#Cc1ccc2c(c1)CC1(CCN(c3cc(=O)n(-c4cccc(Cl)c4Cl)c(C)n3)CC1)[C@@H]2N (atropisomer, axis not shown) [Compound 20]?
IC50 [1]: 12 nM; IC50 [2, 3]: 52 nM

C#Cc1ccc2c(c1)CC1(CCN(c3cc(=O)n(-c4cccc(Cl)c4Cl)c(C)n3)CC1)[C@@H]2N (atropisomer, axis not shown) [Compound 24] was tested. Which IC50 [1] did it give?
Its IC50 is 412 nM.

Which IC50 [1] does the source give for C#Cc1ccc2c(c1)OC1(CCN(c3cc(=O)n(-c4cccc(Cl)c4Cl)c(C)n3)CC1)[C@@H]2N (atropisomer, axis not shown) [Compound 28] here?
The IC50 was over 1000 nM.

For C#Cc1ccc2c(c1)[C@@H](N)C1(CCN(c3nc(C)n(-c4cccc(Cl)c4Cl)c(=O)c3C)CC1)C2 (atropisomer, axis not shown) [Compound 48], which IC50 [1] is on record?
The IC50 was 63 nM.

And the IC50 [2, 5]?
Its IC50 is 231 nM.

C#Cc1ccc2c(c1)[C@@H](N)C1(CCN(c3nc(C)n(-c4cccc(Cl)c4Cl)c(=O)c3C)CC1)C2 (atropisomer, axis not shown) [Compound 49] was tested. Which IC50 [1] did it give?
The IC50 was 3 nM.

And the IC50 [2, 5]?
Its IC50 is 18 nM.

With Cc1c(N2CCC3(CC2)Cc2ccc(C#CCN(C)C)cc2[C@H]3N)nc(C)n(-c2cccc(Cl)c2Cl)c1=O (atropisomer, axis not shown) [Compound 50] as the molecule, how does the IC50 [1] read?
The IC50 was 15 nM.

And the IC50 [2, 5]?
The IC50 was 318 nM.

For Cc1c(N2CCC3(CC2)Cc2ccc(C#CCN(C)C)cc2[C@H]3N)nc(C)n(-c2cccc(Cl)c2Cl)c1=O (atropisomer, axis not shown) [Compound 51], which IC50 [1] is on record?
Its IC50 is 1 nM.

What about the IC50 [2, 5] of the same molecule?
Its IC50 is 21 nM.

Which results are given for C#Cc1ccc2c(c1)[C@@H](N)C1(CCN(c3cc(=O)n(-c4cccc(Cl)c4F)c(C)n3)CC1)C2 (atropisomer, axis not shown) [Compound 65]?
IC50 [1]: 2 nM; IC50 [2, 5]: 60 nM

What does the source list for C#Cc1ccc2c(c1)[C@@H](N)C1(CCN(c3cc(=O)n(-c4cccc(Cl)c4F)c(C)n3)CC1)C2 (atropisomer, axis not shown) [Compound 66]?
IC50 [1]: 24 nM; IC50 [2, 5]: 271 nM

How did the IC50 [1] turn out when C#Cc1ccc2c(c1)[C@@H](N)C1(CCN(c3cc(=O)n(-c4ccc(F)c(OC)c4F)c(C)n3)CC1)C2 (atropisomer, axis not shown) [Compound 88] was run?
The IC50 was 0.8 nM.

And the IC50 [2, 5]?
The IC50 was 26 nM.

With C#Cc1ccc2c(c1)[C@@H](N)C1(CCN(c3cc(=O)n(-c4ccc(F)c(OC)c4F)c(C)n3)CC1)C2 (atropisomer, axis not shown) [Compound 89] as the molecule, how does the IC50 [1] read?
Its IC50 is 15 nM.

What about the IC50 [2, 5] of the same molecule?
The IC50 was 153 nM.

With C#Cc1ccc2c(c1)[C@@H](N)C1(CCN(c3nc(C)n(-c4ccc(F)cc4Cl)c(=O)c3C)CC1)C2 (atropisomer, axis not shown) [Compound 102] as the molecule, how does the IC50 [1] read?
Its IC50 is 2 nM.

What about the IC50 [2, 5] of the same molecule?
The IC50 was 12 nM.

For C#Cc1ccc2c(c1)[C@@H](N)C1(CCN(c3nc(C)n(-c4ccc(F)cc4Cl)c(=O)c3C)CC1)C2 (atropisomer, axis not shown) [Compound 103], which IC50 [1] is on record?
Its IC50 is 17 nM.

And the IC50 [2, 5]?
The IC50 was 80 nM.

For C#Cc1ccc2c(c1)[C@@H](N)C1(CCN(c3cc(=O)n(-c4ccc(F)c(Cl)c4Cl)c(C)n3)CC1)C2 (atropisomer, axis not shown) [Compound 108], which IC50 [1] is on record?
Its IC50 is 1 nM.

What about the IC50 [2, 5] of the same molecule?
Its IC50 is 7 nM.

How did the IC50 [1] turn out when C#Cc1ccc2c(c1)[C@@H](N)C1(CCN(c3cc(=O)n(-c4ccc(F)c(Cl)c4Cl)c(C)n3)CC1)C2 (atropisomer, axis not shown) [Compound 109] was run?
Its IC50 is 118 nM.

What about the IC50 [2, 5] of the same molecule?
Its IC50 is 259 nM.

C#Cc1ccc2c(c1)OC1(CCN(c3cc(=O)n(-c4ccc(F)c(F)c4)c(C)n3)CC1)[C@@H]2N [Compound 13] was tested. Which IC50 [1] did it give?
The IC50 was over 1000 nM.

Which IC50 [1] does the source give for C#Cc1ccc2c(c1)OC1(CCN(c3nc(C)n(-c4ccc(F)c(F)c4)c(=O)c3C)CC1)[C@@H]2N [Compound 14] here?
The IC50 was over 1000 nM.

Which IC50 [1] does the source give for C#Cc1ccc2c(c1)OC1(CCN(c3cc(=O)n(-c4cccc(Cl)c4)c(C)n3)CC1)[C@@H]2N [Compound 18] here?
The IC50 was over 1000 nM.

Which IC50 [1] does the source give for C#Cc1ccc2c(c1)OC1(CCN(c3cc(=O)n(-c4ccccc4)c(C)n3)CC1)[C@@H]2N [Compound 19] here?
The IC50 was over 1000 nM.

With C#Cc1ccc2c(c1)CC1(CCN(c3cc(=O)n(-c4ccc(F)c(F)c4)c(C)n3)CC1)[C@@H]2N [Compound 21] as the molecule, how does the IC50 [1] read?
The IC50 was 541 nM.

Which IC50 [1] does the source give for C#Cc1ccc2c(c1)CC1(CCN(c3cc(=O)n(-c4ccc(Cl)cc4)c(C)n3)CC1)[C@@H]2N [Compound 22] here?
The IC50 was 348 nM.

With C#Cc1ccc2c(c1)CC1(CCN(c3cc(=O)n(-c4ccccc4)c(C)n3)CC1)[C@@H]2N [Compound 23] as the molecule, how does the IC50 [1] read?
The IC50 was 757 nM.

For C#Cc1ccc2c(c1)[C@@H](N)C1(CCN(c3cc(=O)n(-c4c(Cl)cccc4Cl)c(C)n3)CC1)C2 [Compound 33], which IC50 [1] is on record?
The IC50 was 310 nM.

Which IC50 [2, 3] does the source give for Cc1nc(N2CCC3(CC2)Cc2ccc(C#CCN(C)C)cc2[C@H]3N)cc(=O)n1-c1cccc(Cl)c1Cl [Compound 52] here?
Its IC50 is 37 nM.

For C#Cc1ccc2c(c1)[C@@H](N)C1(CCN(c3cc(=O)n(-c4cc(OC)ccc4Cl)c(C)n3)CC1)C2 [Compound 58], which IC50 [2, 5] is on record?
Its IC50 is 260 nM.

How did the IC50 [2, 5] turn out when C#Cc1ccc2c(c1)[C@@H](N)C1(CCN(c3cc(=O)n(-c4ccc(F)c(F)c4Cl)c(C)n3)CC1)C2 [Compound 77] was run?
The IC50 was 56 nM.

With Cc1nc(N2CCC3(CC2)Cc2ccc(SC4COC4)cc2[C@H]3N)cc(=O)n1-c1cccc(Cl)c1Cl [Compound 81, (S)-6-(1-amino-6-(oxetan-3-ylthio)-1,3-dihydrospiro[indene-2,4′-piperidin]-1′-yl)-3-(2,3-dichlorophenyl)-2-methylpyrimidin-4(3H)-one] as the molecule, how does the IC50 [2, 4] read?
The IC50 was 89 nM.

With COCC#Cc1ccc2c(c1)[C@@H](N)C1(CCN(c3cc(=O)n(-c4cccc(Cl)c4Cl)c(C(F)(F)F)n3)CC1)C2 [Compound 130] as the molecule, how does the IC50 [1] read?
The IC50 was over 1000 nM.

For C#Cc1ccc2c(c1)[C@@H](N)C1(CCN(c3cc(=O)n(-c4cccc(C#N)c4Cl)c(C)n3)CC1)C2 [Compound 267], which IC50 [2, 5] is on record?
The IC50 was over 1000 nM.
